The values that follow come from the supplement of paper PMC11061612.

In assay [1] the test system is KMOE-2 (Acute Myeloid Leukemia). As to the kind of experiment: Bliss excess, mean over the matrix (fraction); higher = more synergy. The procedure, abridged: (§1)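 Cell lines grown in DMEM/F12 or RPMI with 10% FBS were plated in 1536-well plates and held 24 hours at 37°C, 5% CO2 before 72 hours of exposure to two-drug dose matrices, with DMSO typically at 0.2%. CellTiter-Glo 2.0 luminescence gave viability, which was converted to inhibition. Vehicle wells were set to 0 and blank wells to 1. Combination Emax is the second-highest inhibition in the matrix, and Bliss excess is the observed combination effect minus the expected EA + EB − EA·EB, where EA and EB are the single-agent effects.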

The subject of assay [2] is OVCAR-4 (Ovarian Carcinoma). Described as above. The procedure, abridged: as §1
The test system of assay [3] is JVM-3 (B-Cell Non-Hodgkin's Lymphoma). Described as above. The procedure, abridged:
as §1

The test system of assay [4] is HGC-27 (Gastric Carcinoma). The assay is described as above. The procedure, abridged:
as §1

Assay [5] has as its system NUGC-3 (Gastric Carcinoma). Described as above. An outline of the steps:
as §1

In assay [6] the test system is TE-1 (Esophageal Squamous Cell Carcinoma). The assay is described as above. An outline of the steps:
as §1

The test system of assay [7] is SU8686 (Pancreatic Carcinoma). The description is as above. An outline of the steps:
as §1

Assay [8] deals with HOP-62 (Lung Adenocarcinoma). As to the kind of experiment: combination Emax (second highest fraction inhibited in the dose matrix, 72 h); higher = more inhibition; extreme values may be limits of the assay. An outline of the steps:
as §1

In assay [9] the test system is OVCAR-4 (Ovarian Carcinoma). The description is as above. An outline of the steps: as §1
The test system of assay [10] is JVM-3 (B-Cell Non-Hodgkin's Lymphoma). The assay is described as above. An outline of the steps: as §1
The subject of assay [11] is NCI-H1915 (Non-Small Cell Lung Carcinoma). Described as above. An outline of the steps: as §1
Assay [12] has as its system OSC-20 (Oral Cavity Carcinoma). Described as above. An outline of the steps:
as §1

Assay [13] concerns NEC8 (Other Solid Carcinomas). The description is as above. The procedure, abridged: as §1
For assay [14], the system named is NUGC-3 (Gastric Carcinoma). Described as above. An outline of the steps: as §1
Assay [15] relates to TE-1 (Esophageal Squamous Cell Carcinoma). Described as above. The procedure, abridged: as §1
Assay [16] has as its system SCC-15 (Oral Cavity Carcinoma). Described as above. An outline of the steps: as §1
The test system of assay [17] is VA-ES-BJ (Other Solid Carcinomas). Described as above. An outline of the steps: as §1
Assay [18] relates to C-4-I (Cervical Carcinoma). The assay is described as above. The procedure, abridged:
as §1

The test system of assay [19] is HSC-4 (Oral Cavity Carcinoma). The description is as above. An outline of the steps: as §1
Another assay has as its system PWR-1E (Non-Cancerous). The description is as above. An outline of the steps: as §1

Each structure is given as a SMILES string.
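For Bliss excess, mean over the matrix in this document: after 72 h of two-drug dosing.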

In the case of `Cc1cc2ncnn2cc1Nc1ncc2c(n1)n(C1CCOCC1)c(=O)n2C` [AZD7648] + C=CCn1c(=O)c2cnc(Nc3ccc(N4CCN(C)CC4)cc3)nc2n1-c1cccc(C(C)(C)O)n1 [AZD1775] (first compound max 10 µM, partner max 1 µM), the Bliss excess is -0.0329 in assay [1]; -0.0108 in assay [2]; -0.0686 in assay [3]; -0.012 in assay [4]; 0.0165 in assay [5]; -0.0045 in assay [6]. Further, in [7], the Bliss excess was -0.0542. The “combination Emax” value in assay [8] came out at 0.241; in assay [9] it was 0.607; in assay [10], 0.904; in assay [11] it was 0.553; in [12], 0.354; in assay [13], 0.123. Besides, the “combination Emax” value in assay [14] was 0.587; in assay [15], 0.621; in [16] it was 0.439; in assay [17], 0.453; in assay [18] it was 0.899; in assay [19], 0.41. In the assay with PWR-1E (Non-Cancerous), the “combination Emax” value stood at 0.562.
Consider `Cc1cc2ncnn2cc1Nc1ncc2c(n1)n(C1CCOCC1)c(=O)n2C` [AZD7648] + CCN(CCO)CCCOc1ccc2c(Nc3cc(CC(=O)Nc4cccc(F)c4)[nH]n3)ncnc2c1 [AZD2811] (first compound max 10 µM, 7x7, partner max 1 µM), for which the Bliss excess was 0.0325 in assay [1]; -0.0035 in [2]; 0.0791 in assay [3]; -0.0685 in assay [4]; -0.0046 in assay [5]; -0.0535 in assay [6]. Moreover, the Bliss excess in [7] was -0.0135. Moreover, the “combination Emax” value in assay [8] amounted to 0.204; in assay [9], 0.285; in assay [10] it was 0.592; in assay [11] it was 0.252; in assay [12], 0.454; in assay [13], 0.0355. The “combination Emax” value in [14] came out at 0.418; in assay [15], 0.246; in assay [16], 0.458; in assay [17] it was 0.346; in assay [18] it was 0.298; in assay [19], 0.188. Besides, the “combination Emax” value in the assay on PWR-1E (Non-Cancerous) is 0.588.
`Cc1cc2ncnn2cc1Nc1ncc2c(n1)n(C1CCOCC1)c(=O)n2C` [AZD7648] + CN(C)CCCOc1ccc(-c2ccc3ncc4c(c3c2)n(C2CCOCC2)c(=O)n4C)cn1 [AZD0156] (first compound max 10 µM, 7x7, partner max 1 µM): the Bliss excess is 0.0226 in assay [1]; -0.0126 in assay [2]; -0.0297 in [3]; 0.0101 in assay [4]; -0.0262 in assay [5]; -0.051 in [6]. The Bliss excess in assay [7] is -0.0144. In addition, the “combination Emax” value in [8] was determined as 0.144; in assay [9], 0.185; in assay [10], 0.638; in assay [11], 0.294; in assay [12] it was 0.224; in [13], 0.0719. The “combination Emax” value in assay [14] was determined as 0.296; in assay [15], 0.19; in assay [16], 0.292; in assay [17], 0.225; in [18] it was 0.211; in assay [19], 0.112. In the assay with PWR-1E (Non-Cancerous), the “combination Emax” value is 0.363.
With `Cc1cc2ncnn2cc1Nc1ncc2c(n1)n(C1CCOCC1)c(=O)n2C` [AZD7648] + C[C@@H]1COCCN1C2=NC(=NC(=C2)C3(CC3)[S@](=N)(=O)C)C4=C5C=CNC5=NC=C4 [AZD6738] (first compound max 10 µM, 7x7, partner max 10 µM), the Bliss excess in assay [1] was 0.0035; in assay [2] it was -0.0053; in [3] it was 0.0108; in assay [4], -0.0265; in [5], -0.0657; in assay [6], -0.0086. The Bliss excess in assay [7] is -0.0289. Moreover, the “combination Emax” value stood at 0.435 in assay [8]; 0.737 in assay [9]; 0.809 in assay [10]; 0.364 in assay [11]; 0.41 in [12]; 0.7 in [13]. The “combination Emax” value was 0.665 in [14]; 0.414 in assay [15]; 0.565 in assay [16]; 0.73 in assay [17]; 0.929 in [18]; 0.584 in assay [19]. In addition, the “combination Emax” value in the assay on PWR-1E (Non-Cancerous) stood at 0.769.
On to `Cc1cc2ncnn2cc1Nc1ncc2c(n1)n(C1CCOCC1)c(=O)n2C` [AZD7648] + O=C(c1cc(Cc2n[nH]c(=O)c3ccccc23)ccc1F)N1CCN(C(=O)C2CC2)CC1 [Olaparib] (first compound max 10 µM, 7x7, partner max 10 µM), for which the Bliss excess in assay [1] was -0.0066; in [2], -0.0214; in [3] it was -0.0053; in assay [4], -0.0092; in assay [5] it was -0.0175; in [6] it was -0.0298. Further, in [7], the Bliss excess is -0.0457. Also, the “combination Emax” value in [8] was determined as 0.145; in [9], 0.133; in assay [10], 0.499; in assay [11], 0.372; in assay [12] it was 0.265; in assay [13], 0.259. Besides, the “combination Emax” value is 0.349 in [14]; 0.15 in assay [15]; 0.14 in [16]; 0.18 in assay [17]; 0.224 in [18]; 0.26 in assay [19]. Also, the “combination Emax” value in the assay with PWR-1E (Non-Cancerous) amounted to 0.28.
`COc1cc2c(cc1OCCCCCOc1cc3c(cc1OC)C(=O)N1C=C(C)C[C@H]1C=N3)N=C[C@@H]1CC(C)=CN1C2=O` [SG3199] + O=C(c1cc(Cc2n[nH]c(=O)c3ccccc23)ccc1F)N1CCN(C(=O)C2CC2)CC1 [Olaparib] (first compound max 0.001 µM, 7x7, partner max 10 µM): the Bliss excess was -0.0283 in assay [1]; -0.0193 in assay [2]; -0.0278 in [3]; 0.0358 in [4]; -0.0332 in assay [5]; -0.0286 in [6]. Further, the Bliss excess in assay [7] is -0.0388. Also, the “combination Emax” value was 0.118 in assay [8]; 0.126 in assay [9]; 0.335 in assay [10]; 0.353 in assay [11]; 0.145 in assay [12]; 0.201 in assay [13]. Also, the “combination Emax” value came out at 0.124 in assay [14]; 0.194 in assay [15]; 0.0778 in assay [16]; 0.151 in assay [17]; 0.184 in [18]; 0.212 in [19]. In the assay on PWR-1E (Non-Cancerous), the “combination Emax” value worked out at 0.0981.
